Data from US10722436B2, “Topical compositions” (MARY KAY INC., priority 2015, dated 2020).
Where no end group is shown, it is not given here. The star is where a group is joined. Hexanoyl = CCCCCC(=O)*

What was measured:
[1] = system: B16-F1 melanocytes; experiment: B16 Pigmentation Assay (melanin secretion); format: cell-based, mouse; settings: B16-F1 cells, 6 days
Experimental: Melanogenesis is the process by which melanocytes produce melanin, a naturally produced pigment that imparts color to skin, hair, and eyes. Inhibiting melanogenesis is beneficial to prevent skin darkening and lighten dark spots associated with aging. Melanogenesis in B16 cells was determined in the presence or absence of niacinamide by measuring melanin secretion. It was determined that niacinamide inhibits melanogenesis by 30%.
Melanogenesis was determined using B16-F1 melanocytes (ATCC), an immortalized mouse melanoma cell line. The endpoint of this assay was a spectrophotometric measurement of melanin production and cellular viability. B16-F1 melanocytes, were cultivated in standard DMEM growth medium with 10% fetal bovine serum (Mediatech) at 37° C. in 10% CO2 and then treated with or without niacinamide for 6 days. Following incubation, melanin secretion was measured by absorbance at 405 nm and cellular viability was quantified.

[2] = system: elastin production in cultured human fibroblasts; experiment: Elastin Stimulation Assay; format: cell-based
Experimental: Elastin is a connective tissue protein that helps skin resume shape after stretching or contracting. Elastin is also an important load-bearing protein used in places where mechanical energy is required to be stored. Elastin is made by linking many soluble tropoelastin protein molecules, in a reaction catalyzed by lysyl oxidase. Elastin production was determined in cultured human fibroblasts incubated in the presence or absence of oligopeptide-1. It was determined that oligopeptide-1 increased elastin production by 23%.
Elastin secretion and elastin fibers were monitored by staining of cultured human fibroblasts using antibodies directed against elastin. Human fibroblasts were treated with or without oligopeptide-1. Following incubation, elastin content was measured using immunofluorescent antibodies directed against elastin.

[3] = system: TNF-α production in keratinocytes; experiment: Inhibition of Tumor Necrosis Factor Alpha (ELISA, PMA-treated keratinocytes); format: cell-based, human; settings: PMA 10 ng/ml, 6 hours
Experimental: TNF-α is the prototype ligand of the TNF superfamily. It is a pleiotropic cytokine that plays a central role in inflammation. Increase in its expression is associated with an up regulation in pro-inflammatory activity. The bioassay used to analyze the effect of oligopeptide-1 and Opuntia ficus-indica extract used a spectrophotometric measurement that reflects the presence of TNF-α and cellular viability. It was determined that oligopeptide-1 and Opuntia ficus-indica extract inhibits TNF-α production in keratinocytes by 40% and 50%.
Subconfluent normal human adult keratinocytes (Cascade Biologics) cultivated in EpiLife standard growth medium (Cascade Biologics) at 37° C. in 5% CO2, were treated with phorbol 12-myristate 13-acetate (PMA, 10 ng/ml, Sigma Chemical, #P1585-1MG) and either oligopeptide-1 or Opuntia ficus-indica extract (treated samples) or no additional treatment (untreated sample) for 6 hours. PMA causes a dramatic increase in TNF-α secretion which peaks at 6 hours after treatment. Following incubation, cell culture medium was collected and the amount of TNF-a secretion quantified using a sandwich enzyme linked immuno-sorbant assay (ELISA) from R&D Systems (#DTA00C).
Briefly, the ELISA assay employed the quantitative sandwich enzyme immunoassay technique whereby a monoclonal antibody specific for TNF-α was been pre-coated onto a microplate. […]

[4] = system: procollagen peptide production in human epidermal fibroblasts; experiment: Collagen Stimulation Assay (procollagen peptide ELISA); format: cell-based; settings: 3 days
Experimental: Collagen is an extracellular matrix protein critical for skin structure. Increased synthesis of collagen helps improve skin firmness and elasticity. Collagen stimulation was determined using a sandwich enzyme linked immuno-sorbant assay (ELISA) from Takara (#MK101) by measuring production of procollagen peptide (a precursor to collagen) in human epidermal fibroblasts incubated in the presence or absence of oligopeptide-1 or Prunus mume extract. It was determined that oligopeptide-1 increased collagen stimulation by 20% and Prunus mume extract increased collagen stimulation by 71%.
Collagen stimulation can be monitored by a spectrophotometric measurement that reflects the presence of procollagen peptide and cellular viability. The assay employs the quantitative sandwich enzyme immunoassay technique whereby a monoclonal antibody specific for procollagen peptide has been pre-coated onto microplate wells. […] Following incubation, cell culture medium was collected (samples and controls) and the amount of procollagen peptide secretion was quantified using a sandwich enzyme linked immuno-sorbant assay (ELISA) from Takara (#MK101). […] The color development was stopped and the color development was measured at 450 nm by a microplate reader.

[5] = system: mushroom tyrosinase; experiment: Mushroom Tyrosinase Activity Assay; format: biochemical; settings: substrate L-Dopa
Experimental: In mammalian cells, tyrosinase catalyzes two steps in the multi-step biosynthesis of melanin pigments from tyrosine (and from the polymerization of dopachrome). Tyrosinase is localized in melanocytes and produces melanin (aromatic quinone compounds) that imparts color to skin, hair, and eyes. The activity of tyrosinase on its substrate L-Dopa in the presence or absence of oligopeptide-1 was determined using a colorimetric mushroom tyrosinase activity assay. It was determined that oligopeptide-1 inhibits tyrosinase by 40%. Tyrosinase activity was assayed by measuring the ability of purified mushroom tyrosinase (Sigma) to oxidize its substrate, L-Dopa (Fisher), in the presence or absence of oligopeptide-1. Oxidation of L-DOPA by the tyrosinase produced a pigment that was evaluated by colorimetric plate reading at 490 nm. The percent inhibition of mushroom tyrosinase activity was calculated and compared to non-treated controls to determine the ability of test ingredients to inhibit the activity of purified enzyme. Test inhibition was compared with that of the known tyrosinase inhibitor kojic acid (Sigma).

| inhibits tyrosinase by [5] [%] | Inhibition of Tyrosinase: Activity ([5]; negative = inhibition) [%] | Compound | inhibits melanogenesis by [1] [%] | Inhibition of Melanogenesis: Activity ([1]; negative = inhibition) [%] | increased elastin production by [2] [%] | Elastin Production: Activity ([2]; positive = increase) | inhibits TNF-α production in keratinocytes by [3] [%] | Inhibition of TNF-α: Activity ([3]; negative = inhibition) [%] | increased collagen stimulation by [4] [%] | Collagen Stimulation: Activity ([4]; positive = increase) |
| --- | --- | --- | --- | --- | --- | --- | --- | --- | --- | --- |
| – | – | NC(=O)c1cccnc1 [Niacinamide, 3-Pyridinecarboxamide] | 30 | −30 | – | – | – | – | – | – |
| 40 | −40 | caprooyl-Gly-His-Lys-Lys (Hexanoyl-GHKK) [Oligopeptide-1, modified tetrapeptide; Lucas Meyer, trade name ChroNOline] | – | – | 23 | +23% | 40 | −40 | 20 | +20% |
